# Experimental data reported in patent US20070224648A1, “Methods and compositions for the diagnosis of treatment of type 2 diabetes” (The Chancellor, Masters and Scholars of the University of …, priority 2005, published 2007).
# Tests used:
# [1] = target: T1, KATP channels from C57BL/6J β-cells (Mus musculus, UniProt Q61743); experiment: ATP sensitivity of KATP channels in inside-out patches; assay type: biochemical
# T1 construct: inside-out patches excised from a C57BL/6J or CH3/HeH β-cell; endogenous in cells; host or cells: primary pancreatic β-cells isolated from C57BL/6J and C3H/HeH mice
# T1 sequence (Q61743 whole entry): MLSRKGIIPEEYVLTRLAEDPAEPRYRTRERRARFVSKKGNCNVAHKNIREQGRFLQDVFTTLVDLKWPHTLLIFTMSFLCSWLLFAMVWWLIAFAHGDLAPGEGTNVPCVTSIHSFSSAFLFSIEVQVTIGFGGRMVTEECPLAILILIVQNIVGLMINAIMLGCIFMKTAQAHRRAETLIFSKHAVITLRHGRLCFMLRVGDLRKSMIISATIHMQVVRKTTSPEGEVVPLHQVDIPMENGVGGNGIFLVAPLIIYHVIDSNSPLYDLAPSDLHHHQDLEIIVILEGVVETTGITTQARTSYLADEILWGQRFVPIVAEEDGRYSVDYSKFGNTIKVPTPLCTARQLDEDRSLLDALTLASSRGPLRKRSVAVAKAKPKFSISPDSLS
# T1 sequence (B2RUS7 1-1588 partner): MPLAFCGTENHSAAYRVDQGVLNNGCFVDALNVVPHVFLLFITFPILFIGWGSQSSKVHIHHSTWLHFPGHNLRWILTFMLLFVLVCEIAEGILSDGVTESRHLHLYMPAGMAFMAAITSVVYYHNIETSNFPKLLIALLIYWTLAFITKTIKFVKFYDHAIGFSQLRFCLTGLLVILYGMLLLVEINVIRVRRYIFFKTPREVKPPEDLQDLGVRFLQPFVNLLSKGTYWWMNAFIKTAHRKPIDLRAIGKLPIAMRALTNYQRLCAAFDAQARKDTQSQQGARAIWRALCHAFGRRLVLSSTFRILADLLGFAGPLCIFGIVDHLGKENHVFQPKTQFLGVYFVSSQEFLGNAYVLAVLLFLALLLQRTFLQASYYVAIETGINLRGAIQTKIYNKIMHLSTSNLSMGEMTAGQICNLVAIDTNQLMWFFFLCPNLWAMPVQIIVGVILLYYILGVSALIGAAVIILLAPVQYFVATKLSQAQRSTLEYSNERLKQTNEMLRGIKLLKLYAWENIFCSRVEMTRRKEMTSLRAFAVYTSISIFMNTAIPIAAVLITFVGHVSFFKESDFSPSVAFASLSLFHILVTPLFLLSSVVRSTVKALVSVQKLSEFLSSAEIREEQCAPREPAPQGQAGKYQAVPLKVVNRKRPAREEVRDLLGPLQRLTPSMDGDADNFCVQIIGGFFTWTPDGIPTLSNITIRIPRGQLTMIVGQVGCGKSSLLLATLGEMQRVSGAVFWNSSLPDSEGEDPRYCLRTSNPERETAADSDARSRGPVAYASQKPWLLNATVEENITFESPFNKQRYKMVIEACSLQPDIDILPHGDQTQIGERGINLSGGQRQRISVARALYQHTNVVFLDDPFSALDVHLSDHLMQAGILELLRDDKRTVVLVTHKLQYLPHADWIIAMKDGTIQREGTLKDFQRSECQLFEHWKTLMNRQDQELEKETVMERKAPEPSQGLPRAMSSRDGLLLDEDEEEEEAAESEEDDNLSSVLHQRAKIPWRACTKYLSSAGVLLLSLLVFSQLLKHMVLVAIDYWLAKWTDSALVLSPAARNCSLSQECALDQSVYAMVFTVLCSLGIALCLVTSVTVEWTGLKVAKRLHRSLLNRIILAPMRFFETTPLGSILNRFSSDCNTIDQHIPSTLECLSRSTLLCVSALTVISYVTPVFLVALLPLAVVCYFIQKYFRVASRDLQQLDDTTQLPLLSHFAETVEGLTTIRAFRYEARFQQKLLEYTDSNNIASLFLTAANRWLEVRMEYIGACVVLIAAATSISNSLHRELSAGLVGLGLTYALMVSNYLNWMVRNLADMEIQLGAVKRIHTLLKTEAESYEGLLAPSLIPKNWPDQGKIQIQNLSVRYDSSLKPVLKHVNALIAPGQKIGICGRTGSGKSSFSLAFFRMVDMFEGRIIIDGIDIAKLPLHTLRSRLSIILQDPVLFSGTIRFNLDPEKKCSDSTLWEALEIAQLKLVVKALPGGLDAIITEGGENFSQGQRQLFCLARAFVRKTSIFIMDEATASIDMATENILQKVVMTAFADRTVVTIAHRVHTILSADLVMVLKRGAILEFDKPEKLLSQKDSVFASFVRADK
# Experimental: The ATP sensitivity of KATP channels was measured at −60 mV in inside-out patches. Currents were digitized at 5 kHz and filtered at 2 kHz. The pipette (extracellular) contained (mmol/l): 140 KCl, 2.6 CaCl2, 1.2 MgCl2, 10 HEPES (pH 7.4 with KOH). The bath (intracellular) solution contained (mmol/l): 107 KCl, 1 MgCl2, 1 CaCl2, 10 HEPES (pH 7.2 with KOH), and K2ATP as indicated.
# Concentration-response relations were obtained by alternating test solutions with control (glucose- or ATP-free) solution. The control conductance was taken as the mean of that obtained in control solution before and after application of the test agent. The current in the presence of glucose or nucleotide (I) is plotted as a fraction of that obtained in control solution (IC). Data were fit with the Hill equation: I/IC=1/(1+([X]/IC50)h) where [X] is the concentration of glucose or ATP, IC50 is the concentration giving half-maximal inhibition of the current and h is the Hill coefficient. Data are given as mean±one S.E.M.
# rodent islets = conditions: cited from earlier work
# [2] = tested on: isolated wild-type islets; experiment: Glucose utilization in isolated pancreatic islets; assay type: cell-based, mouse; conditions: H2O2, 20 mM glucose
# Experimental: FIG. 19: Glucose utilization in pancreatic islets isolated wild-type and homozygous NNT mutant mice (G745D). Each data point is the mean of 6 replicates each of 5 islets. Glucose utilization was measured as described in Ashcroft S J H, Weerasinghe L C C, Bassett J M, Randle P J: The pentose cycle and insulin release in mouse pancreatic islets. Biochem J (1972) 126, 525-532. Briefly, And these islets were placed in 20 microlitres of medium containing [3H]glucose and various concentrations of unlabelled glucose (as indicated). The tubes were placed in outer vials containing 0.5 ml of water. After 2-hours of incubation, metabolism was terminated by applying 5 microlitres of HCl. Then these samples were incubated for more than 18-24 hours to allow [3H]water in the incubation tube to equilibrate with the water in outer vial. Then, radioactivity of the water in the outer vial was measured. Control samples without islets were used to correct for background counts.
# FIG. 20: Effect of H2O2 on glucose utilization in isolated wild-type islets. Each data point is the mean of 6 replicates each of 5 islets.
# MIN6 cells [3] = experiment: Insulin secretion from MIN6 cells; assay type: cell-based; conditions: for insulin secretory response: 1 mM glutathione for 4 hours, Nnt siRNA transfected cells; for insulin secretion: tolbutamide 200 μM
# MIN6 cells [4] = experiment: Fura-2 calcium imaging in MIN6 cells; assay type: cell-based; conditions: for calcium response to glucose: 1 mM glutathione for 4 hours, Nnt siRNA transfected cells
# Experimental: (§1) MIN6 cells were cultured on 35mm Fluorodishes (World Precision Instruments) and incubated with 3 μM Fura-2-AM (Molecular Probes) for 40 min at 37° C. They were imaged at room temperature (20-24° C.) using an IonOptix fluorescence system (Boston, Mass.), with 340 nm and 380 nm dual excitation. The 510 nm emission ratio was collected at 1 Hz. Background subtraction was performed by measuring fluorescence from a cell-free region in the field of view. Cells were perfused continuously with extracellular solution containing (mM): 137 NaCl, 5.6 KCl, 2.6 CaCl2, 1.2 MgCl2, 10 HEPES (pH 7.4 with NaOH) plus glucose or tolbutamide as indicated.
# [5] = tested on: type-2 diabetic human islets; conditions: cited from earlier work
# [6] = tested on: isolated pancreatic islets; experiment: Insulin secretion from isolated pancreatic islets
# [7] = tested on: human and rodent pancreatic islets; conditions: preincubation in 15 μM metformin; cited from earlier work
# [8] = tested on: β-cells isolated from C57BL/6J and C3H/HeH mice; experiment: Fura-2 imaging of intracellular calcium in isolated β-cells; assay type: cell-based, mouse; conditions: 500 μmol/l tolbutamide; C57BL/6J and C3H/HeH β-cells
# Experimental: as §1, with “Islet” for “MIN6”, “35 mm” for “35mm”, “Instruments, Stevenage, UK)” for “Instruments)”, “Probes, Paisley, UK)” for “Probes)”, “(as in perforated-patch experiments),” for “containing (mM): 137 NaCl, 5.6 KCl, 2.6 CaCl2, 1.2 MgCl2, 10 HEPES (pH 7.4 with NaOH)”, “indicated. Only data from cells that responded to 500 μmol/l tolbutamide were analysed.” for “indicated.”
smiles,measurement,setting,value
Nc1ncnc2c1ncn2[C@@H]1O[C@H](COP(=O)(O)OP(=O)(O)OP(=O)(O)O)[C@@H](O)[C@H]1O [ATP],"Hill coefficient h, ATP on KATP channel activity","[1]; inside-out patches, n=5",0.89±0.06
same,IC50,[1]; read-out: half-maximal inhibition of C57BL/6J KATP channels by ATP (IC50),10 µM
OO [H2O2],insulin secretion,"rodent islets; H2O2, rodent β-cells",inhibits insulin secretion
same,glucose utilization,[2],significantly increases glucose utilization
N[C@@H](CCC(=O)N[C@@H](CS)C(=O)NCC(=O)O)C(=O)O [glutathione],insulin secretory response,MIN6 cells [3],partially reversed the impaired calcium and insulin secretory responses
same,insulin secretory response,MIN6 cells [3]; listed as Glutathione,partially restores the insulin secretory response
same,calcium response to glucose,MIN6 cells [4],partially reversed the impaired calcium
same,calcium response to glucose,MIN6 cells [4]; listed as Glutathione,partially restores the calcium response
same,secretory response to glucose,[5]; 24-hour culture with 30 μM glutathione,improved significantly
CN(C)C(=N)N=C(N)N [metformin],glucose-stimulated insulin secretion,"[6]; Nnt-G745D islets, 24-hour preincubation in 15 μM metformin",restored glucose-stimulated insulin secretion in pancreatic islets from the Nnt-G745D mutant mouse
same,glucose-stimulated insulin secretion,"[6]; Nnt-G745D islets, 24-hour preincubation in 15 μM metformin, listed as Metformin",restores insulin secretion in Nnt mouse pancreatic islets
same,glucose-stimulated insulin secretion,"[6]; WT islets, 24-hour preincubation in 15 μM metformin",little effect on wild-type (WT) pancreatic islets
same,glucose-stimulated insulin secretion,[6]; acute exposure to metformin,without effect
same,insulin secretion,[5]; preincubation in 15 μM metformin,partially restores insulin secretion in type-2 diabetic human islets
same,glucose-stimulated insulin secretion,rodent islets; incubation at 1 mM metformin,reduces glucose-stimulated insulin secretion
same,protection from deleterious effects of elevated lipids,[7],protects human and rodent pancreatic islets from the deleterious effects of elevated lipids
CCCCNC(=O)NS(=O)(=O)c1ccc(C)cc1 [tolbutamide],insulin secretion,MIN6 cells [3]; nonsense vs Nnt siRNA transfected cells,elicited equivalent responses in both nonsense and Nnt siRNA transfected cells
same,insulin secretion,"MIN6 cells [3]; nonsense, Nnt, UCP2, UCP2/Nnt or Gck siRNA transfected cells",stimulated a calcium response and insulin secretion
same,insulin secretion,"[6]; tolbutamide, B6-TG vs B6-TG negative islets",stimulated secretion comparably in both strains
same,increase in [Ca]i,"MIN6 cells [4]; tolbutamide 200 μM, nonsense vs Nnt siRNA transfected cells",stimulated a similar increase in [Ca]i in both cells transfected with nonsense and Nnt siRNA
same,calcium response,"MIN6 cells [4]; tolbutamide 200 μM, nonsense, Nnt, UCP2 or UCP2+Nnt siRNA transfected cells",stimulated a calcium response
same,change in [Ca2+]i,[8],rise in [Ca2+]i
